Broadly, the melting point is the temperature, or range, at which the solid turns liquid.

tyrosinase from Agaricus bisporus (AbTYR), sequence (C7FF04 2-392): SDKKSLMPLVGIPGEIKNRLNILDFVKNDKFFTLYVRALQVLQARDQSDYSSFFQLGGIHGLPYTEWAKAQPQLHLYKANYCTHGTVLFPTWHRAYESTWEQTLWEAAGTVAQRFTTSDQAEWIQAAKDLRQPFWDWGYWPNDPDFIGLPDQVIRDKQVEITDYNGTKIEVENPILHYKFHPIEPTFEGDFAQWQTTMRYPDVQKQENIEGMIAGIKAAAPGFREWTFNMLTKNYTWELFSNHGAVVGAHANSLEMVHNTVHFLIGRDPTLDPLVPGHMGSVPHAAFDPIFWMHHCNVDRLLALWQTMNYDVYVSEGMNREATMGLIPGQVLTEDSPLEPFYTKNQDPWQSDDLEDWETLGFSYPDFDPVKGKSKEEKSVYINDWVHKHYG

Tested on in the first data set: not given
Assay: not given
Details: not given
For the compound `O=C(c1ccc(Cl)cc1Cl)N1CCN(Cc2ccc(F)c(Cl)c2)CC1` [1d, (4-(3-Chloro-4-fluorobenzyl)piperazin-1-yl)(2,4-dichlorophenyl)methanone], the melting point fell in the range of 121 to 124 °C.
`O=C(c1cc(F)ccc1C(F)(F)F)N1CCN(Cc2ccc(F)c(Cl)c2)CC1` [1e, (4-(3-Chloro-4-fluorobenzyl)piperazin-1-yl)(5-fluoro-2-(trifluoromethyl)phenyl)methanone] gave a melting point of 133 to 135 °C.
With `O=C(c1cc2ccccc2s1)N1CCN(Cc2ccc(F)c(Cl)c2)CC1` [1f, Benzo[b]thiophen-2-yl(4-(3-chloro-4-fluorobenzyl)piperazin-1-yl)methanone], the melting point was in the range of 111 to 113 °C.
Regarding `O=C(CN1CCN(Cc2ccc(F)c(Cl)c2)CC1)N1CCN(c2ccc(O)cc2)CC1` [2c, 2-(4-(3-Chloro-4-fluorobenzyl)piperazin-1-yl)-1-(4-(4-hydroxyphenyl)piperazin-1-yl)ethanone], the melting point lay within 165 to 168 °C.
The same measure, in the same setting: the value for `CC(C(=O)N1CCN(c2ccc(O)cc2)CC1)N1CCN(Cc2ccc(F)c(Cl)c2)CC1` (stereo not shown) [2d, 2-(4-(3-Chloro-4-fluorobenzyl)piperazin-1-yl)-1-(4-(4-hydroxyphenyl)piperazin-1-yl)propan-1-one] was 172 to 174 °C.
Regarding `Nn1c(SCc2ccc(F)c(Cl)c2)nnc1-c1ccncc1` [3b, 3-(3-Chloro-4-fluorobenzylthio)-5-(pyridin-4-yl)-4H-1,2,4-triazol-4-amine], the melting point lay in the range of 164 to 165 °C.
Regarding `Nn1c(SCc2ccc(F)cc2Cl)nnc1-c1ccncc1` [3c, 3-((2-Chloro-4-fluorobenzyl)thio)-5-(pyridin-4-yl)-4H-1,2,4-triazol-4-amine], the melting point was in the range of 171 to 172 °C.
On the same count and under the same terms, to `Nn1c(SCc2ccc(F)c(Cl)c2)nnc1-c1ccccc1` [3d, 3-(3-Chloro-4-fluorobenzylthio)-5-phenyl-4H-1,2,4-triazol-4-amine] belongs 164 to 166 °C; to `c1ccc(SCSc2ccccc2)cc1` [4b, Phenylsulfanylmethylsulfanylbenzene], 34 to 35 °C.

The next data set addresses tyrosinase from Agaricus bisporus (AbTYR) (Agaricus bisporus, UniProt C7FF04). As to the kind of experiment: diphenolase inhibition of AbTYR (L-DOPA substrate, absorbance at 475 nm). It counts as biochemical. The conditions noted are these: diphenolase activity. On the procedure:
Mushroom tyrosinase (EC 1.14.18.1) was supplied by Merck (Cat. No. T3824). In vitro assay was performed according to the method of Mirabile et al.. Each sample (0.05 mL) at different concentrations (0.10–200 μM) was mixed with 0.5 mL of L-DOPA solution (1.25 mM) and 0.9 mL of phosphate buffer solution (pH 6.8). After a 10 min incubation at 25 °C, 0.05 mL of an aqueous solution of the enzyme was added to the mixture. […] The inhibition rate was calculated with the following mathematical equation:Inhibition % = (A − B/A) × 100 where A = absorbance of negative control and B = absorbance of test sample. Finally, IC50 values were determined by interpolation of the dose–response curves.
Take `Nn1c(SCc2ccc(F)cc2Cl)nnc1-c1ccncc1` [3c, 3-((2-Chloro-4-fluorobenzyl)thio)-5-(pyridin-4-yl)-4H-1,2,4-triazol-4-amine]: the “AbTYR inhibitory effect, result in words” value is “inhibitory effects dramatically disappeared”.

(Values after article PMC10177926, “Leveraging the 3-Chloro-4-fluorophenyl Motif to Identify Inhibitors of Tyrosinase from Agaricus bisporus” (International Journal of Molecular Sciences, 2023).)
